Laboratory results published in patent US5470854A, “2-phenylbenzo[B]furans, process for their manufacture and pharmaceutical preparations containing them” (Schering Aktiengesellschaft, priority 1991, dated 1995).

Key:
oestrogen receptor = biological target: T1, oestrogen receptor (Bos taurus, UniProt P49884); assay: Relative bonding affinity to the oestrogen receptor (competition with 3H-17β-Estradiol); format: binding, calf; conditions: for RBA* (relative bonding affinity to the oestrogen receptor): calves' uteri, in relation to 17β-estradiol = 100
T1 construct: oestrogen receptor of a calf's uterus; from tissue; host or cells: calf uterus
T1 sequence (P49884 1-596): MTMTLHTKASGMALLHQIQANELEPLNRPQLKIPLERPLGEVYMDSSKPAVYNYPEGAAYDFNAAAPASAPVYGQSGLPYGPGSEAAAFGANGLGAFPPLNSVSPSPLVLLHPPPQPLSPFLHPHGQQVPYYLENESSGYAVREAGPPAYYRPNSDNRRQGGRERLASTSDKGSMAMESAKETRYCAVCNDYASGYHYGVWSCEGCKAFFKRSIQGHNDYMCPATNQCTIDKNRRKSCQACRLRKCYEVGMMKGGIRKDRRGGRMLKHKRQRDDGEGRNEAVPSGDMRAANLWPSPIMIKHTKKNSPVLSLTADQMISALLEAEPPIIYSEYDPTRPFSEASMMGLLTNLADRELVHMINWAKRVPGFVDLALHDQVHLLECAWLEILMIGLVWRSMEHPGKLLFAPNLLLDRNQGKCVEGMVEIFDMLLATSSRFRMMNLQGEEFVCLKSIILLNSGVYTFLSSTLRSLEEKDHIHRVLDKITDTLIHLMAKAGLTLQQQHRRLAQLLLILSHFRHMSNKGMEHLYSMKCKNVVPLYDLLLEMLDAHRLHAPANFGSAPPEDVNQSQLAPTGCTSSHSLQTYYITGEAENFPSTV
Description: The test methodology is described in Cancer Treatment Reviews 1984, 11, 147.
*Relative bonding affinities to the oestrogen receptor of calves' uteri,
in relation to 17β-estradiol = 100

[1] = system: human MCF-7 mamma carcinoma cells; assay: Effect on cell growth of MCF-7 cells; format: cell-based; conditions: for activity at 10 µM / activity at 1 µM / activity at 0.1 µM / activity at 5 µM: Homo sapiens, MCF7, mean of 16 individual results, read-out: T/C (corrected); for activity at 10 µM: 1 × 10^-5 M; for activity at 1 µM: 1 × 10^-6 M; for activity at 0.1 µM: 1 × 10^-7 M; for activity at 5 µM: 5 × 10^-6 M
Procedure: Data given as corrected T/C values (%).
^a Inhibiting effect on MCF7 cells: quotient of optical densities fro
standard deviation through error reckoning according to GAUSS.
^b Substance concentration (mol/1) in incubation medium.
^c Significant p < 0.01 in relation to control group (C).

uterus of infantile mice [2] = assay: Anti-uterotrophic test (in-vivo test on infantile mice); conditions: simultaneous 0.4 μg oestron/animal/day; for anti-uterotrophic test, effect: uterus dry weight (mg)/body weight (g) × 100
Procedure: (§1) The effectiveness of these compounds was found in an in-vivo test on infantile mice. This test is extensively described in Cancer Treatment Reviews 1984, 11, 147, and J. Med. Chem., 1984, 27, 1439.
(§2) ^a dosage/animal, administered s.c. on three consecutive days in oliv
(§3) ^b uterus dry weight (mg)/body weight (g) × 100, determined 24
(§4) hours after the final injection.
^c simultaneous administration of 0.4 μg oestron/animal/day.

uterus of infantile mice [3] = assay: Uterotrophic test (in-vivo test on infantile mice); conditions: uterus dry weight (mg)/body weight (g) × 100
Procedure: as §1, §2, §3, §4

[4] = 1 μg/animal s.c. on three consecutive days
[5] = 5 μg/animal s.c. on three consecutive days
[6] = 25 μg/animal s.c. on three consecutive days
[7] = 125 μg/animal s.c. on three consecutive days

SMILES | RBA* (relative bonding affinity to the oestrogen receptor) (oestrogen receptor) | effect on the growth of MCF-7 / hormone-dependent tumour cells, in words [1] | activity at 10 µM [1] [%] | activity at 1 µM [1] [%] | activity at 0.1 µM [1] [%] | activity at 5 µM [1] [%] | affinity to the oestrogen (estradiol) receptor, in words (oestrogen receptor) | anti-uterotrophic test, inhibition (uterus of infantile mice [2]; 5 μg/animal s.c.) [%] | anti-uterotrophic test, inhibition (uterus of infantile mice [2]; 25 μg/animal s.c.) [%] | anti-uterotrophic test, effect (uterus of infantile mice [2]; 1 μg/animal s.c.) [mg/g × 100] | anti-uterotrophic test, effect (uterus of infantile mice [2]; 5 μg/animal s.c.) [mg/g × 100] | anti-uterotrophic test, effect (uterus of infantile mice [2]; 25 μg/animal s.c.) [mg/g × 100] | uterotrophic test, effect (uterus of infantile mice [3]; [4]) [mg/g × 100] | uterotrophic test, effect (uterus of infantile mice [3]; [5]) [mg/g × 100] | uterotrophic test, effect (uterus of infantile mice [3]; [6]) [mg/g × 100] | anti-uterotrophic test, inhibition (uterus of infantile mice [2]; 125 μg/animal s.c.) [%] | anti-uterotrophic test, effect (uterus of infantile mice [2]; 125 μg/animal s.c.) [mg/g × 100] | uterotrophic test, effect (uterus of infantile mice [3]; [7]) [mg/g × 100]
Cc1c(-c2ccc(O)cc2)oc2ccc(O)cc12 [Compound 61a] | 2,0 | strongly inhibiting effect | 13.3 ± 5.3 | 78.1 ± 17.2 | 72.3 ± 18.2 | 37.7 ± 11.9 |  |  |  |  |  |  |  |  |  |  |  | 
CCc1c(-c2ccc(O)cc2)oc2ccc(O)cc12 [Compound 62a, 3-ethyl-5-hydroxy-2-(4-hydroxyphenyl)benzo[b]furan] | 15,7 | strongly inhibiting effect | -0.2 ± 2.9 | 49 ± 12.6 | 65 ± 13.5 | 0.3 ± 3.8 | greatest affinity in relation to estradiol | 10 | 22 | 44.2 ± 7.8 | 39.1 ± 4.2 | 35.6 ± 2.6 | 10.5 ± 1.9 | 14.6 ± 2.4 | 19.0 ± 4.4 |  |  | 
Cc1c(-c2ccc(O)cc2)sc2ccc(O)cc12 [Compound 102a, 5-hydroxy-2-(4-hydroxypheny)-3-methyibenxo[b]thiophen] | 26,0 | strongly inhibiting effect | 14.7 ± 6.4 | 87.4 ± 20 | 71.3 ± 18.8 | 48.5 ± 14.7 | greatest affinity in relation to estradiol | 12 | 68 |  | 42.4 ± 4.0 | 23.1 ± 3.8 | 15.8 ± 2.1 | 20.8 ± 2.7 | 15.7 ± 2.3 | 42 | 32.2 ± 3.8 | 18.5 ± 3.0
Cc1c(-c2ccc(O)cc2)sc2cc(O)ccc12 [Compound 102b, 6-hydroxy-2-(4-hydroxyphenyl)-3-methylbenzo[b]thiophen] | 9,7 | strongly inhibiting effect | 10.9 ± 6.7 | 133 ± 43.4 | 125 ± 37.2 | 54.9 ± 17.9 |  | 7 | 30 |  | 47.0 ± 7.8 | 38.5 ± 3.7 | 10.9 ± 2.1 | 12.1 ± 1.9 | 16.9 ± 2.9 | 31 | 38.1 ± 5.8 | 21.9 ± 4.6
CC/C(=C(\c1ccccc1)c1ccc(OCCN(C)C)cc1)c1ccccc1 [Tam, Tamoxifen, reference compound] |  |  | -5.7 ± 3.4 | 59.1 ± 14.1 | 56.5 ± 16.3 |  |  |  |  |  |  |  |  |  |  |  |  | 

Continued, in another order:

RBA* (relative bonding affinity to the oestrogen receptor) (oestrogen receptor) | SMILES | effect on the growth of MCF-7 / hormone-dependent tumour cells, in words [1] | activity at 10 µM [1] [%] | activity at 1 µM [1] [%] | activity at 0.1 µM [1] [%] | activity at 5 µM [1] [%] | affinity to the oestrogen (estradiol) receptor, in words (oestrogen receptor) | anti-uterotrophic test, inhibition (uterus of infantile mice [2]; 5 μg/animal s.c.) [%] | anti-uterotrophic test, inhibition (uterus of infantile mice [2]; 25 μg/animal s.c.) [%] | anti-uterotrophic test, effect (uterus of infantile mice [2]; 1 μg/animal s.c.) [mg/g × 100] | anti-uterotrophic test, effect (uterus of infantile mice [2]; 5 μg/animal s.c.) [mg/g × 100] | anti-uterotrophic test, effect (uterus of infantile mice [2]; 25 μg/animal s.c.) [mg/g × 100] | uterotrophic test, effect (uterus of infantile mice [3]; [4]) [mg/g × 100] | uterotrophic test, effect (uterus of infantile mice [3]; [5]) [mg/g × 100] | uterotrophic test, effect (uterus of infantile mice [3]; [6]) [mg/g × 100] | anti-uterotrophic test, inhibition (uterus of infantile mice [2]; 125 μg/animal s.c.) [%] | anti-uterotrophic test, effect (uterus of infantile mice [2]; 125 μg/animal s.c.) [mg/g × 100] | uterotrophic test, effect (uterus of infantile mice [3]; [7]) [mg/g × 100]
0,2 | Cc1c(-c2ccc(O)cc2)oc2cc(O)ccc12 [Compound 61b, 6-hydroxy-2-(4-hydroxyphenyl)-3-methylbenzo[b]furan] |  |  |  |  |  |  |  |  |  |  |  |  |  |  |  |  | 
0,6 | CCc1c(-c2ccc(O)cc2)oc2cc(O)ccc12 [Compound 62b, 3-ethyl-6-hydroxy-2-(4-hydroxyphenyl)benzo[b]furan] |  |  |  |  |  |  |  |  |  | 60.3 ± 5.8 | 56.9 ± 7.1 | 12.9 ± 2.5 | 14.5 ± 3.7 | 17.0 ± 3.3 | 12 | 49.8 ± 7.9 | 18.3 ± 6.3
20,0 | CCCc1c(-c2ccc(O)cc2)oc2ccc(O)cc12 [Compound 63a, 5-hydroxy-2-(4-hydroxyphenyl)-3-propylbenzo[b]furan] | strongly inhibiting effect | -2.1 ± 2.8 | 50.5 ± 8.8 | 51 ± 11.3 | -0.1 ± 3.6 | greatest affinity in relation to estradiol |  |  |  |  |  |  |  |  |  |  | 
1,7 | CCCc1c(-c2ccc(O)cc2)oc2cc(O)ccc12 [Compound 63b, 6-hydroxy-2-(4-hydroxyphenyl)-3-propylbenzo[b]furan] |  |  |  |  |  |  |  |  |  |  |  |  |  |  |  |  | 
1,6 | CCCCc1c(-c2ccc(O)cc2)oc2ccc(O)cc12 [Compound 64a, 3-butyl-5-hydroxy-2-(4-hydroxyphenyl)benzo[b]furan] |  |  |  |  |  |  |  |  |  |  |  |  |  |  |  |  | 
0,6 | CCCCc1c(-c2ccc(O)cc2)oc2cc(O)ccc12 [Compound 64b, 3-butyl-6-hydroxy-2-(4-hydroxyphenyl)benzo[b]furan] |  |  |  |  |  |  |  |  |  |  |  |  |  |  |  |  | 
4,3 | Oc1ccc(-c2oc3ccc(O)cc3c2CCCCCCN2CCCCC2)cc1 [Compound 68a, 5-hydroxy-2-(4-hydroxyphenyl)-3-(6-N-piperidylhexyl)benzo[b]furan] | strongly inhibiting effect | -9.9 ± 1.8 | 51.6 ± 10.2 | 64.4 ± 12 | 10.4 ± 4.8 |  | 55 | 56 |  | 38.1 ± 7.5 | 37.6 ± 6.2 | 16.1 ± 2.1 | 17.3 ± 2.9 | 15.8 ± 1.9 | 48 | 41.8 ± 6.4 | 17.3 ± 3.2
5,4 | Oc1ccc(-c2oc3cc(O)ccc3c2CCCCCCN2CCCCC2)cc1 [Compound 68b, 6-hydroxy-2-(4-hydroxyphenyl)-3-(6-N-piperidylhexyl)benzo[b]furan] |  | -9.6 ± 2.9 | 42.9 ± 7.7 | 58.7 ± 17.1 | 12.1 ± 5.4 |  | 10 | 7 |  | 58.6 ± 7.1 | 59.9 ± 6.6 | 18.3 ± 1.9 | 18.8 ± 3.0 | 24.4 ± 3.8 |  | 68.7 ± 9.9 | 21.4 ± 3.7
